Values quoted from earlier work in patent publication US6569404B1, “Phase shift colloids as ultrasound contrast agents” (priority 1993, dated 2003).
Like-named read-outs stand apart in the source and are kept apart here.

Conditions: cited from earlier work
[1] = boiling point under standard pressure conditions, chemical list arranged by total atoms
[2] = Chemical List of low boiling liquids, Example 45
[3] = dispersed phase of emulsions of Example 18

SMILES | Boiling Point [2] | further results
CC(C(F)(F)F)C(F)(F)F [1,1,1,3,3,3-hexafluoro-2-methyl-propane] |  | Boiling Point [1]: 21.5 degrees Celcius
FCCC(F)(F)F [1,1,1,3-tetrafluoro-propane] |  | Boiling Point [1]: 29.4 degrees Celcius
CCC(F)(F)F [1,1,1-trifluoro propane] |  | Boiling Point [1]: −13 degrees Celcius
COCC(F)(F)F [1,1,1-trifluoro-2-methoxy-ethane] |  | Boiling Point [1]: 31 degrees Celcius
CCCC(F)(F)F [1,1,1-trifluoro-butane] |  | Boiling Point [1]: 16.74 degrees Celcius
CCC=C(F)F [1,1-difluoro-but-1-ene] |  | Boiling Point [1]: 3.71 degrees Celcius
C=CC=C(F)F [1,1-difluoro-buta-1,3-diene] |  | Boiling Point [1]: 3.5 degrees Celcius
Cc1cc2ccccc2c2cc3ccccc3cc12 [1,2-Benzanthracene, 4-methyl] | 1.0 degrees Celcius | 
C=C=CC [1,2-Butadiene] | 10.8 degrees Celcius | 
FC(F)(Cl)C(F)(F)Cl [1,2-dichloro-tetrafluoro-ethane] |  | Boiling Point [1]: 3.5 degrees Celcius
FC(F)=C(F)C(F)=C(F)F [1,3-Butadiene, hexafluoro] | 6.0 degrees Celcius | 
C=CC=C [1,3-Butadiene] | −4.4 degrees Celcius | 
C#CCCC#CC [1,5-Heptadiyne] | 26.0 degrees Celcius | 
FC(F)=C(F)C(F)(F)C(F)(F)F [1-Butene, perfluoro] | 4.8 degrees Celcius | 
FC(F)(F)C(F)(F)C(F)(F)C(F)(F)C(F)(F)C(F)(F)C(F)(F)C(F)(F)I [1-Iodoperfluorooctane, reference compound] |  | Boiling Point [3]: 160 °C
C=CC#CCCCCC [1-Nonene-3-yne] | 27.0 degrees Celcius | 
FC(F)=C(F)C(F)(F)C(F)(F)C(F)(F)F [1-Pentene, perfluoro] | 29.0 degrees Celcius | 
CCC(C)(F)F [2,2 difluoro-butane] |  | Boiling Point [1]: 30.92 degrees Celcius
C/C=C/C [2-Butene (trans)] | 0.9 degrees Celcius | 
FC(=C(F)C(F)(F)F)C(F)(F)F [2-Butene, octafluoro] | 1.2 degrees Celcius | 
FC(=C(F)C(F)(F)F)C(F)(F)F [2-Butene, perfluoro] | 0.0 degrees Celcius | 
FC(F)(F)C#CC(F)(F)F [2-Butyne, perfluoro] | −24.6 degrees Celcius | 
C=C(C)C(F)F [3,3 difluoro-2-methyl-propene] |  | Boiling Point [1]: 28.1 degrees Celcius
C=C(C)C(F)(F)F [3,3,3-trifluoro-2-methyl-propene] |  | Boiling Point [1]: 6 degrees Celcius
CC[C@H](C)CF [(−)(S)-1-fluoro-2-methyl-butane] |  | Boiling Point [1]: 14.1 degrees Celcius
O=C(C(F)(F)F)C(F)(F)F [Acetone, hexafluoro] | −28.0 degrees Celcius | 

SMILES | Boiling Point [2] | further results
CC(=O)F [Acetyl fluoride] | 20.8 degrees Celcius | 
C#CC(C)C [Acetylene, isopropyl] | 0.0 degrees Celcius | 
FC(F)=C=C(F)F [Allene, tetrafluoro] | −38.0 degrees Celcius | 
C=C=C [Allene] | −34.5 degrees Celcius | 
[Ar] [Argon] | −189.4 degrees Celcius | 
FC(F)(F)N=NC(F)(F)F [Azomethane, hexafluoro] | −31.6 degrees Celcius | 
CN=NC [Azomethane] | 1.5 degrees Celcius | 
O=C(Cl)c1c(Cl)c(Cl)c(Cl)c(Cl)c1Cl [Benzoyl chloride, pentachloro] | 5.0 degrees Celcius | 
CCCCON=O [Butyl nitrite] | −77.8 degrees Celcius | 
O=C=O [Carbon dioxide] | −78.6 degrees Celcius | 
O=C=C=C=O [Carbon suboxide] | 6.8 degrees Celcius | 
O=C=S [Carbonyl sulfide] | −50.0 degrees Celcius | 
CC=CC#N [Crotononitrile] | 12.0 degrees Celcius | 
FC1=C(F)C(F)(F)C1(F)F [Cyclobutene, perfluoro] | 3.0 degrees Celcius | 
CCC1CC1 [Cyclopropane, ethyl] | 34.5 degrees Celcius | 
CC1CC1 [Cyclopropane, methyl] | 4.0 degrees Celcius | 
C1CC1 [Cyclopropane] | −32.7 degrees Celcius | 
FC(F)(F)C(F)(F)C(F)(F)C(F)(F)F [Decaflurobutane] | 4.0 degrees Celcius | Boiling Point [3]: −5.8 °C
C#CC#C [Diacetylene] | 22.0 degrees Celcius | 
FC(F)(F)SSC(F)(F)F [Dimethyl disulfide, hexafluoro] | 34.6 degrees Celcius | 
CCN(C)C [Dimethyl ethyl amine] | 36.0 degrees Celcius | 
COC.Cl [Dimethyloxonium chloride] | −2.0 degrees Celcius | 
FC(F)OCC(F)(F)F [Ether, difluoromethyl 2,2,2-trifluoroethyl] | 28.0 degrees Celcius | 
FN(F)C(F)(F)C(F)(F)F [Ethyl amine, perfluoro] | −35.0 degrees Celcius | 
CCN [Ethyl amine] | 16.6 degrees Celcius | 
CCNC [Ethyl methyl amine] | 36.7 degrees Celcius | 

SMILES | Boiling Point [2] | further results
CCOC [Ethyl methyl ether] | 10.8 degrees Celcius | 
CCON=O [Ethyl nitrite] | 16.0 degrees Celcius | 
C=COCC [Ethyl vinyl ether] | 35.0 degrees Celcius | 
C=CCC [Example 1-Butene, 1-Butene] | −6.3 degrees Celcius | 
C#CCC [Example 1-Butyne, 1-Butyne] | 8.1 degrees Celcius | 
C=CCCC [Example 1-Pentene, 1-Pentene] | 30.0 degrees Celcius | 
CC#CC [Example 2-Butyne, 2-Butyne] | 27.0 degrees Celcius | 
CC(C)C(F)(F)F [Example 2-Trifluoromethyl-propane, 2-Trifluoromethyl-propane] |  | Boiling Point [1]: 13 degrees Celcius
COC=O [Formic acid, methyl ester] | 31.5 degrees Celcius | 
C=C1C=CC=C1 [Fulvene] | 7.0 degrees Celcius | 
C=C(C)C [Isobutylene] | −6.9 degrees Celcius | 
C=CC(=C)C [Isoprene] | 34.0 degrees Celcius | 
[Kr] [Krypton] | −153.0 degrees Celcius | 
O=S(=O)(Cl)C(F)(F)F [Methane sulfonyl chloride, trifluoro] | 31.6 degrees Celcius | 
O=NC(F)(F)Br [Methane, bromo difluoro nitroso] | −12.0 degrees Celcius | 
FCBr [Methane, bromo fluoro] | 19.0 degrees Celcius | 
FC(Cl)Br (stereo not shown) [Methane, bromo-chloro-fluoro] | 36.0 degrees Celcius | 
FC(F)(F)Br [Methane, bromo-trifluoro] | −57.9 degrees Celcius | 
O=[N+]([O-])C(F)(F)Cl [Methane, chloro difluoro nitro] | 25.0 degrees Celcius | 
FCCl [Methane, chloro fluoro] | −9.1 degrees Celcius | 
FC(F)(F)Cl [Methane, chloro trifluoro] | −81.4 degrees Celcius | 
FC(F)Cl [Methane, chloro-difluoro] | −40.8 degrees Celcius | 
FC(F)(Br)Br [Methane, dibromo difluoro] | 24.5 degrees Celcius | 
FC(F)(Cl)Cl [Methane, dichloro difluoro] | −29.8 degrees Celcius | 
FC(Cl)Cl [Methane, dichloro-fluoro] | 9.0 degrees Celcius | 
ClCCl [Methane, dichloro] | 40.0 degrees Celcius | 

SMILES | Boiling Point [2] | further results
FCF [Methane, difluoro] | −51.6 degrees Celcius | 
[SiH3]C[SiH3] [Methane, disilano] | 14.7 degrees Celcius | 
CI [Methane, iodo-] | 42.4 degrees Celcius | 
FC(F)(F)I [Methane, iodo-trifluoro] | −22.5 degrees Celcius | 
O=[N+]([O-])C(F)(F)F [Methane, nitro-trifluoro] | −31.1 degrees Celcius | 
O=NC(F)(F)F [Methane, nitroso-trifluoro] | −84.0 degrees Celcius | 
FC(F)(F)F [Methane, tetrafluoro] | −129.0 degrees Celcius | 
FC(Cl)(Cl)Cl [Methane, trichlorofluoro] | 23.7 degrees Celcius | 
C [Methane] | −164.0 degrees Celcius | 
FC(F)(F)SCl [Methanesulfenylchloride, trifluoro] | −0.7 degrees Celcius | 
CS [Methanethiol] | 62 degrees Celcius | 
COC [Methyl ether] | −25.0 degrees Celcius | 
COC(C)C [Methyl isopropyl ether] | 32.5 degrees Celcius | 
CON=O [Methyl nitrite] | −12.0 degrees Celcius | 
[Ne] [Neon] | −246.0 degrees Celcius | 
CC(C)(C)C [Neopentane] | 9.5 degrees Celcius | 
[N]=O [Nitric oxide] | −151.6 degrees Celcius | 
N#N [Nitrogen (N2)] | −196.0 degrees Celcius | 
O=NCl [Nitrosyl chloride] | −5.5 degrees Celcius | 
[N-]=[N+]=O [Nitrous oxide] | −88.5 degrees Celcius | 
O=C(C(F)(F)F)C(F)(F)[N+](=O)[O-] [Pentafluoronitroacetone] |  | Boiling Point [1]: 32.6 degrees Celcius
FC(F)(F)C(F)(F)C(F)(F)C(F)(F)C(F)(F)C(F)(F)C(F)(F)C(F)(F)F [Perfluorooctane, reference compound] |  | Boiling Point [3]: 98 °C
O=C(O)c1c(Cl)c(Cl)c(Cl)c(Cl)c1C(=O)O [Phthalic acid, tetrachloro] | 2.0 degrees Celcius | 
CC1CCC(C)C(C)N1 (stereo not shown) [Piperidine,2,3,6-trimethyl] | 36.0 degrees Celcius | 
